Test: xn = mol fraction of the nth substance listed

O=[N+]([O-])c1ccccc1 + OCCOCCOCCO
viscosity [mPa·s], 101 kPa
Details | 298.15 K | 308.15 K
x2 = 0.0465 | 2.086 | 1.759
x2 = 0.1495 | 2.91 | 2.342
x2 = 0.2501 | 3.999 | 3.087
x2 = 0.3505 | 5.455 | 4.049
x2 = 0.4432 | 7.222 | 5.184
x2 = 0.4957 | 8.443 | 5.954
x2 = 0.5486 | 9.864 | 6.838
x2 = 0.6486 | 13.17 | 8.857
x2 = 0.7501 | 17.53 | 11.47
x2 = 0.8489 | 23 | 14.69
x2 = 0.94 | 29.37 | 18.4

CC12CC3CC(C)(C1)CC(C)(C3)C2 + c1ccc2c(c1)CCCC2
viscosity [mPa·s], 100 kPa
Details | x1 = 0.1006 | x1 = 0.2003 | x1 = 0.2993 | x1 = 0.4002 | x1 = 0.4993 | x1 = 0.6013 | x1 = 0.7012 | x1 = 0.8008 | x1 = 0.9005
293.15 K | 2.14 | 2.1 | 2.1 | 2.12 | 2.16 | 2.22 | 2.29 | 2.38 | 2.5
298.15 K | 1.93 | 1.9 | 1.9 | 1.92 | 1.95 | 2 | 2.07 | 2.15 | 2.25
303.15 K | 1.76 | 1.73 | 1.73 | 1.75 | 1.78 | 1.82 | 1.88 | 1.95 | 2.04
308.15 K | 1.61 | 1.59 | 1.59 | 1.6 | 1.62 | 1.67 | 1.72 | 1.78 | 1.85
313.15 K | 1.48 | 1.46 | 1.46 | 1.47 | 1.49 | 1.53 | 1.57 | 1.63 | 1.7
318.15 K | 1.37 | 1.35 | 1.35 | 1.36 | 1.38 | 1.41 | 1.45 | 1.5 | 1.56
323.15 K | 1.26 | 1.25 | 1.25 | 1.26 | 1.28 | 1.31 | 1.34 | 1.39 | 1.44

CCCCCCCC + c1ccccc1
298.15 K, 101.33 kPa
Details | viscosity [mPa·s]
x1 = 0.04472 | 0.5829
x1 = 0.09184 | 0.5595
x1 = 0.1715 | 0.5352
x1 = 0.2954 | 0.5061
x1 = 0.4088 | 0.4934
x1 = 0.4907 | 0.4904
x1 = 0.5855 | 0.4924
x1 = 0.739 | 0.4929
x1 = 0.928 | 0.5124

CCCCCCCCCCCCCC + c1ccccc1
Details | viscosity [mPa·s]
298 K, 101 kPa, x2 = 0.5 | 1.239
298.15 K, 101 kPa, x1 = 0.1005 | 0.696
298.15 K, 101 kPa, x1 = 0.2025 | 0.803
298.15 K, 101 kPa, x1 = 0.3001 | 0.909
298.15 K, 101 kPa, x1 = 0.3948 | 1.038
298.15 K, 101 kPa, x1 = 0.469 | 1.168
298.15 K, 101 kPa, x1 = 0.5776 | 1.318
298.15 K, 101 kPa, x1 = 0.6954 | 1.468
298.15 K, 101 kPa, x1 = 0.8004 | 1.664
298.15 K, 101 kPa, x1 = 0.9094 | 1.86
298.15 K, 101.33 kPa, x1 = 0.04444 | 0.6498
298.15 K, 101.33 kPa, x1 = 0.09068 | 0.6807
298.15 K, 101.33 kPa, x1 = 0.2125 | 0.8158
298.15 K, 101.33 kPa, x1 = 0.4169 | 1.079
298.15 K, 101.33 kPa, x1 = 0.5121 | 1.221
298.15 K, 101.33 kPa, x1 = 0.6271 | 1.423
298.15 K, 101.33 kPa, x1 = 0.7139 | 1.579
298.15 K, 101.33 kPa, x1 = 0.8006 | 1.716
298.15 K, 101.33 kPa, x1 = 0.8822 | 1.842
303.15 K, 101 kPa, x1 = 0.1005 | 0.653
303.15 K, 101 kPa, x1 = 0.2025 | 0.748
303.15 K, 101 kPa, x1 = 0.3001 | 0.842
303.15 K, 101 kPa, x1 = 0.3948 | 0.961
303.15 K, 101 kPa, x1 = 0.469 | 1.081
303.15 K, 101 kPa, x1 = 0.5776 | 1.211
303.15 K, 101 kPa, x1 = 0.6954 | 1.341
303.15 K, 101 kPa, x1 = 0.8004 | 1.513
303.15 K, 101 kPa, x1 = 0.9094 | 1.684
308.15 K, 101 kPa, x1 = 0.1005 | 0.611
308.15 K, 101 kPa, x1 = 0.2025 | 0.699
308.15 K, 101 kPa, x1 = 0.3001 | 0.786
308.15 K, 101 kPa, x1 = 0.3948 | 0.894
308.15 K, 101 kPa, x1 = 0.469 | 1.002
308.15 K, 101 kPa, x1 = 0.5776 | 1.115
308.15 K, 101 kPa, x1 = 0.6954 | 1.228
308.15 K, 101 kPa, x1 = 0.8004 | 1.384
308.15 K, 101 kPa, x1 = 0.9094 | 1.54
318 K, 101 kPa, x2 = 0.5 | 0.9217

CCCCCO + c1ccccc1
Details | viscosity [mPa·s]
293.15 K, 101.33 kPa, x1 = 0.0659 | 0.671
293.15 K, 101.33 kPa, x1 = 0.1351 | 0.715
293.15 K, 101.33 kPa, x1 = 0.218 | 0.791
293.15 K, 101.33 kPa, x1 = 0.2928 | 0.876
293.15 K, 101.33 kPa, x1 = 0.4304 | 1.127
293.15 K, 101.33 kPa, x1 = 0.5061 | 1.307
293.15 K, 101.33 kPa, x1 = 0.58 | 1.532
293.15 K, 101.33 kPa, x1 = 0.6971 | 2.016
293.15 K, 101.33 kPa, x1 = 0.729 | 2.159
293.15 K, 101.33 kPa, x1 = 0.8032 | 2.568
293.15 K, 101.33 kPa, x1 = 0.8704 | 3.014
293.15 K, 101.33 kPa, x1 = 0.9454 | 3.594
298.15 K, 101 kPa, x1 = 0.04 | 0.616
298.15 K, 101 kPa, x1 = 0.09 | 0.641
298.15 K, 101 kPa, x1 = 0.14 | 0.669
298.15 K, 101 kPa, x1 = 0.18 | 0.709
298.15 K, 101 kPa, x1 = 0.37 | 0.936
298.15 K, 101 kPa, x1 = 0.47 | 1.132
298.15 K, 101 kPa, x1 = 0.57 | 1.36
298.15 K, 101 kPa, x1 = 0.78 | 1.963

Cc1ccnc(C)c1 + c1ccccc1
viscosity [mPa·s], 101 kPa
Details | x1 = 0.1033 | x1 = 0.1926 | x1 = 0.3022 | x1 = 0.397 | x1 = 0.492 | x1 = 0.6027 | x1 = 0.697 | x1 = 0.8005 | x1 = 0.8995
303 K | 0.5693 | 0.5838 | 0.6013 | 0.6187 | 0.6483 | 0.6749 | 0.6927 | 0.7197 | 0.7508
313 K | 0.5048 | 0.5147 | 0.5305 | 0.5497 | 0.5727 | 0.5908 | 0.6073 | 0.6318 | 0.6679
323 K | 0.4489 | 0.4582 | 0.4749 | 0.4967 | 0.5102 | 0.5277 | 0.5424 | 0.5752 | 0.5919

ClC(Cl)=C(Cl)Cl + c1ccccc1
Details | viscosity [mPa·s]
298.15 K, 101 kPa, x2 = 0.0876 | 0.8015
298.15 K, 101 kPa, x2 = 0.1609 | 0.771
298.15 K, 101 kPa, x2 = 0.3555 | 0.7018
298.15 K, 101 kPa, x2 = 0.452 | 0.6743
298.15 K, 101 kPa, x2 = 0.6216 | 0.6351
298.15 K, 101 kPa, x2 = 0.6602 | 0.6286
298.15 K, 101 kPa, x2 = 0.708 | 0.6209
298.15 K, 101 kPa, x2 = 0.781 | 0.6115
298.15 K, 101 kPa, x2 = 0.8752 | 0.6029
298.15 K, 101 kPa, x2 = 0.9037 | 0.6011
303.15 K, 101.33 kPa, x1 = 0.1913 | 0.577
303.15 K, 101.33 kPa, x1 = 0.2749 | 0.584
303.15 K, 101.33 kPa, x1 = 0.3761 | 0.605
303.15 K, 101.33 kPa, x1 = 0.4668 | 0.624
303.15 K, 101.33 kPa, x1 = 0.5756 | 0.648
303.15 K, 101.33 kPa, x1 = 0.6664 | 0.675
303.15 K, 101.33 kPa, x1 = 0.7757 | 0.712
303.15 K, 101.33 kPa, x1 = 0.8828 | 0.746

O=[N+]([O-])c1ccccc1 + c1ccccc1
101 kPa
Details | viscosity [mPa·s]
298.15 K, x2 = 0.2096 | 1.417
298.15 K, x2 = 0.4874 | 1.017
298.15 K, x2 = 0.8636 | 0.681
303.15 K, x1 = 0.0887 | 0.6013
303.15 K, x1 = 0.1796 | 0.654
303.15 K, x1 = 0.2737 | 0.7103
303.15 K, x1 = 0.3694 | 0.7841
303.15 K, x1 = 0.4673 | 0.865
303.15 K, x1 = 0.5682 | 0.9589
303.15 K, x1 = 0.6723 | 1.075
303.15 K, x1 = 0.7788 | 1.218
303.15 K, x1 = 0.8874 | 1.39

ClC(Cl)=C(Cl)Cl + c1ccncc1
298.15 K, 101 kPa
Details | viscosity [mPa·s]
x1 = 0.0296 | 0.8879
x1 = 0.1254 | 0.8794
x1 = 0.1862 | 0.875
x1 = 0.2246 | 0.8719
x1 = 0.2887 | 0.8657
x1 = 0.4448 | 0.8496
x1 = 0.5638 | 0.8411
x1 = 0.6271 | 0.837
x1 = 0.7214 | 0.8324
x1 = 0.842 | 0.8315
x1 = 0.9127 | 0.8331
x1 = 0.9559 | 0.8373
